# Measured values as given in ChEMBL document CHEMBL1914405, “Discovery of novel spirocyclic inhibitors of fatty acid amide hydrolase (FAAH). Part 1: identification of 7-azaspiro[3.5]nonane and 1-oxa-8-azaspiro[4.5]decane as lead scaffolds” (Bioorg Med Chem Lett, 2011).
# Active and inactive are the calls of the source. The calls are words filed in the database; no cut-off is given here.
# Key:
# [1] = molecular target: T1, Fatty-acid amide hydrolase 1 (Homo sapiens) (UniProt O00519); test: Ratio of Kinact to Ki for human FAAH by enzyme coupled assay
# T1 sequence (whole entry): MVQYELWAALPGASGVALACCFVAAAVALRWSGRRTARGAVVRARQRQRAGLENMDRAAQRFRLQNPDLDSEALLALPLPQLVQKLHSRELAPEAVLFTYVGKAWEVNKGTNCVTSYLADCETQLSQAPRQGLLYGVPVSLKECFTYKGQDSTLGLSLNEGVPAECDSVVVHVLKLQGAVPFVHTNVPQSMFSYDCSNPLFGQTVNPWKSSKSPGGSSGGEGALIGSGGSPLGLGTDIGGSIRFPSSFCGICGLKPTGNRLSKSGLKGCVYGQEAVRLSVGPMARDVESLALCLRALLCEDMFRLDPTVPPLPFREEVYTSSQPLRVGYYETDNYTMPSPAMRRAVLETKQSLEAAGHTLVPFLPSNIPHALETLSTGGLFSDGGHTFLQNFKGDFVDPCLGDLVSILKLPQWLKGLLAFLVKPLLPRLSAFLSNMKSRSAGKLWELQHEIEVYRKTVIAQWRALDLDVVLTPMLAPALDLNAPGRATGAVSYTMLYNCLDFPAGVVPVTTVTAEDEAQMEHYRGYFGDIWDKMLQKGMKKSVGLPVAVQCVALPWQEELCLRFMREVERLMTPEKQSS
# [2] = molecular target: Voltage-gated inwardly rectifying potassium channel KCNH2 (Homo sapiens, UniProt Q12809); test: Inhibition of human ERG
# Rattus norvegicus = test: Analgesic activity against complete Freund's adjuvant-induced pain in rat at 25 mg/kg, ip; format: functional, organism-based; design: dose 25 mg/kg
# Sequence of Voltage-gated inwardly rectifying potassium channel KCNH2 (Q12809 whole entry): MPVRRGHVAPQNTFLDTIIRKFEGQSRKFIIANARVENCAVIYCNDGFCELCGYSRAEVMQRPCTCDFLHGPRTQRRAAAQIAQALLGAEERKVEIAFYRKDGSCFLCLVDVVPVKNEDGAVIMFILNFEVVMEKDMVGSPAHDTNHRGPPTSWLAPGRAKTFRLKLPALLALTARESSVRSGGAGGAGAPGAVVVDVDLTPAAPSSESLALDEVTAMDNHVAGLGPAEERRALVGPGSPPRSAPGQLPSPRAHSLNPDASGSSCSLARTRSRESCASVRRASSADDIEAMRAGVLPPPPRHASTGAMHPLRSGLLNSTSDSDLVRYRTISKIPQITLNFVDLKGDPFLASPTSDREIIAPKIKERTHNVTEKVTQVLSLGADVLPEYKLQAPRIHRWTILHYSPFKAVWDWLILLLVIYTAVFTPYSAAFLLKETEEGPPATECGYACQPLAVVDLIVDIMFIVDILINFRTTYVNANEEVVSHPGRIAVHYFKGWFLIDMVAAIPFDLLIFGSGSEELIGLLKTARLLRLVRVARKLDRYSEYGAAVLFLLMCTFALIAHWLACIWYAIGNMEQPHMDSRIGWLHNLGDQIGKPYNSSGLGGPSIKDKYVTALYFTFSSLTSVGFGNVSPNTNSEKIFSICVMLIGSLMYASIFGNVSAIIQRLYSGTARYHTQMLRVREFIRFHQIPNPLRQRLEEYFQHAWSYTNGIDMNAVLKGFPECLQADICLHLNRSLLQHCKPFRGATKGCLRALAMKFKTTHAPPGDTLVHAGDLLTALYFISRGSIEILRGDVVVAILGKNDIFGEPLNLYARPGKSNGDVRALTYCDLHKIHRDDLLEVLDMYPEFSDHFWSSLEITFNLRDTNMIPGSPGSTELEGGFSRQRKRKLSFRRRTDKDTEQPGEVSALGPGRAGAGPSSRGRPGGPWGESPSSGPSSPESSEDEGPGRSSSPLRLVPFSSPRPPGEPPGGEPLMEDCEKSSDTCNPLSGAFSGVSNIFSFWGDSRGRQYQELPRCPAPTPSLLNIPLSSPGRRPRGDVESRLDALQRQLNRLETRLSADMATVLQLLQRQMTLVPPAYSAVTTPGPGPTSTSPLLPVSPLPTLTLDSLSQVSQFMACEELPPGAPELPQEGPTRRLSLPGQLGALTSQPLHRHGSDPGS
Ratio [1] [M⁻¹ s⁻¹],SMILES,inhibition (INH) [2],Activity (Rattus norvegicus)
1340,O=C(Nc1cccnn1)N1CCC2(CC1)C[C@@H](c1cccc(Oc3ccc(C(F)(F)F)cn3)c1)CO2,–,–
344,O=C(Nc1cccnn1)N1CCC2(CC1)CC(CCc1cccc(Oc3ccc(C(F)(F)F)cn3)c1)C2,–,–
18.3,O=C(Nc1cccnn1)N1CCC2(CC1)CN(c1cccc(Oc3ccc(C(F)(F)F)cn3)c1)C2,–,–
515,Cc1noc(NC(=O)N2CCC3(CC2)CC(c2cccc(Oc4ccc(C(F)(F)F)cn4)c2)CO3)c1C (stereo not drawn),–,–
1760,Cc1noc(NC(=O)N2CCC3(CC2)CC(c2cccc(Oc4ccc(C(F)(F)F)cn4)c2)C3)c1C,Active,Active
3040,O=C(Nc1cccnn1)N1CCC2(CC1)C[C@H](c1cccc(Oc3ccc(C(F)(F)F)cn3)c1)CO2,Active,–
2080,O=C(Nc1cccnc1)N1CCC2(CC1)CC(c1cccc(Oc3ccc(C(F)(F)F)cn3)c1)CO2 (stereo not drawn),–,–
1570,O=C(Nc1cccnn1)N1CCC2(CC1)CC(c1cccc(Oc3ccc(C(F)(F)F)cn3)c1)C2,Active,–
307,O=C(Nc1cccnn1)N1CCC2(CCC(c3cccc(Oc4ccc(C(F)(F)F)cn4)c3)C2)CC1 (stereo not drawn),–,–
846,O=C(Nc1cccnc1)N1CCC2(CC1)CC(Cc1cccc(Oc3ccc(C(F)(F)F)cn3)c1)CO2 (stereo not drawn),–,–
272,O=C(Nc1cccnn1)N1CCC2(CC1)CC(Cc1cccc(Oc3ccc(C(F)(F)F)cn3)c1)C2,–,–
229,O=C(Nc1cccnn1)N1CCC2(CCC(c3cccc(Oc4ccc(C(F)(F)F)cn4)c3)O2)CC1 (stereo not drawn),–,–
914,O=C(Nc1cccnc1)N1CCC2(CC1)CC(c1cccc(Oc3ccc(C(F)(F)F)cn3)c1)C2,–,–
3130,O=C(Nc1cccnn1)N1CCC2(CC1)CC(c1cccc(Oc3ccc(C(F)(F)F)cn3)c1)CO2 (racemic),–,–
